Key:
Details in all cases: treatment: drug + dasatinib (fixed dose, not stated); 5 days
TK-10 [1] = assay: GI50 of drug in presence of dasatinib; higher = less potent
Experimental: (§1)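 Primary HTS combination arm: 8 RCC cell lines treated with 8 doses (up to 10 uM) of each library drug plus a fixed dose of dasatinib (dose not stated) for 5 days; viability read by CellTiter-Glo and normalised to DMSO. GI50 was fitted with XLfit, AUC is the area under the dose-response curve, and minimum viability is the lowest fraction of DMSO viability across doses.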

A498 [2] = assay: as above
Experimental: as §1

SN12C [3] = assay: as above
Experimental: as §1

ACHN [4] = assay: as above
Experimental: as §1

786-O [5] = assay: as above
Experimental: as §1

CAKI-1 [6] = assay: as above
Experimental: as §1

769-P [7] = assay: as above
Experimental: as §1

UO-31 [8] = assay: as above
Experimental: as §1

TK-10 [9] = assay: minimum viability across doses, drug + dasatinib, relative to DMSO (fraction); higher = less growth inhibition
Experimental: as §1

A498 [10] = assay: as above
Experimental: as §1

SN12C [11] = assay: as above
Experimental: as §1

ACHN [12] = assay: as above
Experimental: as §1

786-O [13] = assay: as above
Experimental: as §1

CAKI-1 [14] = assay: as above
Experimental: as §1

769-P [15] = assay: as above
Experimental: as §1

UO-31 [16] = assay: as above
Experimental: as §1

TK-10 [17] = assay: AUC of dose-response viability curve, drug + dasatinib, normalised to DMSO (arbitrary (AUC of normalised viability)); higher = less growth inhibition
Experimental: as §1

A498 [18] = assay: as above
Experimental: as §1

SN12C [19] = assay: as above
Experimental: as §1

ACHN [20] = assay: as above
Experimental: as §1

786-O [21] = assay: as above
Experimental: as §1

CAKI-1 [22] = assay: as above
Experimental: as §1

769-P [23] = assay: as above
Experimental: as §1

UO-31 [24] = assay: as above
Experimental: as §1

SMILES | GI50 of drug (TK-10 [1]) [nM] | GI50 of drug (A498 [2]) [nM] | GI50 of drug (SN12C [3]) [nM] | GI50 of drug (ACHN [4]) [nM] | GI50 of drug (786-O [5]) [nM] | GI50 of drug (CAKI-1 [6]) [nM] | GI50 of drug (769-P [7]) [nM] | GI50 of drug (UO-31 [8]) [nM] | minimum viability across doses (TK-10 [9]) | minimum viability across doses (A498 [10]) | minimum viability across doses (SN12C [11]) | minimum viability across doses (ACHN [12]) | minimum viability across doses (786-O [13]) | minimum viability across doses (CAKI-1 [14]) | minimum viability across doses (769-P [15]) | minimum viability across doses (UO-31 [16]) | AUC of dose-response viability curve (TK-10 [17]) | AUC of dose-response viability curve (A498 [18]) | AUC of dose-response viability curve (SN12C [19]) | AUC of dose-response viability curve (ACHN [20]) | AUC of dose-response viability curve (786-O [21]) | AUC of dose-response viability curve (CAKI-1 [22]) | AUC of dose-response viability curve (769-P [23]) | AUC of dose-response viability curve (UO-31 [24])
COc1cc(OC)c(/C=C/S(=O)(=O)Cc2ccc(OC)c(NCC(=O)[O][Na])c2)c(OC)c1 + Cc1nc(Nc2ncc(C(=O)Nc3c(C)cccc3Cl)s2)cc(N2CCN(CCO)CC2)n1 [dasatinib] | 148 | 78.6 | 163 | 27.9 | 18.1 | 15.7 | 31.6 | 58.6 | 0.292 | 0.138 | 0.184 | 0.088 | 0.0033 | 0.0849 | 0.0648 | 0.00998 | 1.79 | 1.71 | 1.67 | 1.18 | 0.766 | 0.99 | 1.04 | 1.28
COc1cc2ncnc(Nc3cccc(Br)c3)c2cc1OC.Cl + Cc1nc(Nc2ncc(C(=O)Nc3c(C)cccc3Cl)s2)cc(N2CCN(CCO)CC2)n1 [dasatinib] | 884 | > 10000 | > 10000 | 5.77 | 2860 | 2490 | 111 | 8520 | 0.124 | 0.835 | 0.547 | 0.181 | 0.0127 | 0.237 | 0.157 | 0.0122 | 2.19 | 3.5 | 2.32 | 1.18 | 2.14 | 2.22 | 1.69 | 2.94
c1ccc2c(-c3cnn4cc(-c5ccc(N6CCNCC6)cc5)cnc34)ccnc2c1 + Cc1nc(Nc2ncc(C(=O)Nc3c(C)cccc3Cl)s2)cc(N2CCN(CCO)CC2)n1 [dasatinib] | 3060 | 3180 | 1580 | 999 | 2090 | 1790 | 1340 | 3050 | 0.00532 | 0.00332 | 0.00173 | 0.0011 | 0.00229 | 0.00191 | 0.00161 | 0.00301 | 2.51 | 3.1 | 2.19 | 1.77 | 2.41 | 2.19 | 2.03 | 3.73
CN(c1ncccc1CNc1nc(Nc2ccc3c(c2)CC(=O)N3)ncc1C(F)(F)F)S(C)(=O)=O.O=S(=O)(O)c1ccccc1 + Cc1nc(Nc2ncc(C(=O)Nc3c(C)cccc3Cl)s2)cc(N2CCN(CCO)CC2)n1 [dasatinib] | 3290 | 3510 | 4150 | 96.6 | 222 | 966 | 1560 | 3010 | 0.15 | 0.015 | 0.012 | 0.0114 | 0.00638 | 0.039 | 0.0401 | 0.0198 | 2.28 | 3.75 | 2.16 | 1.66 | 1.6 | 1.98 | 1.93 | 3.91
NCC(=O)Nc1ccc(-n2nc(C(F)(F)F)cc2-c2ccc3c(ccc4ccccc43)c2)cc1 + Cc1nc(Nc2ncc(C(=O)Nc3c(C)cccc3Cl)s2)cc(N2CCN(CCO)CC2)n1 [dasatinib] | 2750 | 2100 | 4510 | 729 | 1060 | 3650 | 2650 | 2580 | 0.177 | 0.0159 | 0.00289 | 0.0394 | 0.00632 | 0.00695 | 0.0325 | 0.0147 | 2.41 | 2.71 | 2.31 | 1.81 | 1.94 | 2.5 | 2.22 | 2.72
O=C(NOCC(O)CO)c1cc(Br)c(F)c(F)c1Nc1ccc(I)cc1F (stereo unspecified) + Cc1nc(Nc2ncc(C(=O)Nc3c(C)cccc3Cl)s2)cc(N2CCN(CCO)CC2)n1 [dasatinib] | 2540 | 1560 | 1220 | 26.5 | 149 | 680 | 800 | 1690 | 0.404 | 0.344 | 0.357 | 0.279 | 0.327 | 0.133 | 0.278 | 0.164 | 2.23 | 2.39 | 2.1 | 1.45 | 1.75 | 1.91 | 2.06 | 2.59
O=c1cc(N2CCOCC2)oc2c(-c3cccc4c3sc3ccccc34)cccc12 + Cc1nc(Nc2ncc(C(=O)Nc3c(C)cccc3Cl)s2)cc(N2CCN(CCO)CC2)n1 [dasatinib] | 4630 | 8330 | > 10000 | 1800 | 763 | 847 | 3090 | 2850 | 0.289 | 0.442 | 0.401 | 0.139 | 0.0139 | 0.112 | 0.225 | 0.0435 | 2.52 | 3.4 | 2.38 | 2.09 | 1.89 | 1.96 | 2.36 | 3.36
O=C(NOC[C@H](O)CO)c1ccc(F)c(F)c1Nc1ccc(I)cc1F + Cc1nc(Nc2ncc(C(=O)Nc3c(C)cccc3Cl)s2)cc(N2CCN(CCO)CC2)n1 [dasatinib] | 335 | 259 | 233 | 13.5 | 266 | 148 | 74.4 | 141 | 0.296 | 0.302 | 0.308 | 0.3 | 0.377 | 0.0721 | 0.173 | 0.0632 | 1.91 | 1.85 | 1.75 | 1.36 | 1.85 | 1.51 | 1.42 | 1.6
COc1cccc(-c2cc(=O)c3ccccc3o2)c1N + Cc1nc(Nc2ncc(C(=O)Nc3c(C)cccc3Cl)s2)cc(N2CCN(CCO)CC2)n1 [dasatinib] | > 10000 | > 10000 | > 10000 | > 10000 | > 10000 | > 10000 | > 10000 | > 10000 | 0.655 | 0.908 | 0.658 | 0.511 | 0.541 | 0.612 | 0.645 | 1.08 | 2.57 | 3.37 | 2.49 | 2.01 | 2.58 | 2.27 | 2.48 | 3.99
Cc1cc(Nc2cc(CN3CCOCC3)c3nc(C)c(Cc4ccc(Cl)cc4F)n3n2)[nH]n1 + Cc1nc(Nc2ncc(C(=O)Nc3c(C)cccc3Cl)s2)cc(N2CCN(CCO)CC2)n1 [dasatinib] | 1950 | 4200 | 1340 | 436 | 262 | 410 | 1620 | 2610 | 0.0211 | 0.194 | 0.105 | 0.0702 | 0.00749 | 0.00448 | 0.0393 | 0.0199 | 2.43 | 3.43 | 2.1 | 1.75 | 1.65 | 1.73 | 2.24 | 3.83
CN1CCN(c2ccc([N+](=O)[O-])c3no[n+]([O-])c23)CC1 + Cc1nc(Nc2ncc(C(=O)Nc3c(C)cccc3Cl)s2)cc(N2CCN(CCO)CC2)n1 [dasatinib] | > 10000 | > 10000 | > 10000 | > 10000 | > 10000 | > 10000 | > 10000 | > 10000 | 0.64 | 0.862 | 0.687 | 0.539 | 0.517 | 0.624 | 0.644 | 0.864 | 2.41 | 3.19 | 2.52 | 2.07 | 2.2 | 2.27 | 2.12 | 3.44
CC(C)(C)Cn1c(N)nc2ccc(-c3[nH]c(C(C)(C)C)nc3-c3ccc(F)cc3)nc21.CS(=O)(=O)O.CS(=O)(=O)O + Cc1nc(Nc2ncc(C(=O)Nc3c(C)cccc3Cl)s2)cc(N2CCN(CCO)CC2)n1 [dasatinib] | 5500 | > 10000 | > 10000 | 24.9 | > 10000 | 4370 | 1760 | > 10000 | 0.447 | 0.949 | 0.54 | 0.244 | 0.617 | 0.435 | 0.255 | 0.508 | 2.23 | 3.68 | 2.36 | 1.45 | 2.48 | 2.18 | 2.07 | 3.24
CC(=O)c1c(C)c2cnc(Nc3ccc(N4CCNCC4)cn3)nc2n(C2CCCC2)c1=O.Cl + Cc1nc(Nc2ncc(C(=O)Nc3c(C)cccc3Cl)s2)cc(N2CCN(CCO)CC2)n1 [dasatinib] | 523 | > 10000 | 1190 | 19 | 174 | 179 | 231 | 1530 | 0.186 | 0.566 | 0.368 | 0.0923 | 0.174 | 0.0887 | 0.0419 | 0.166 | 2.06 | 2.92 | 2.1 | 1.32 | 1.87 | 1.71 | 1.8 | 2.58
CCN(CC)CCCCNc1ncc2cc(-c3cc(OC)cc(OC)c3)c(NC(=O)NC(C)(C)C)nc2n1 + Cc1nc(Nc2ncc(C(=O)Nc3c(C)cccc3Cl)s2)cc(N2CCN(CCO)CC2)n1 [dasatinib] | 1390 | 3570 | 366 | 19.8 | 1210 | 80.1 | 1820 | 696 | 0.258 | 0.139 | 0.0905 | 0.042 | 0.00578 | 0.0229 | 0.207 | 0.0119 | 2.18 | 2.67 | 1.9 | 1.28 | 2.02 | 1.31 | 2.13 | 2.28

— the supplement of paper PMC8149375
